{
  "source": "patent US20120328696A1",
  "about": "“ANTI-PARKINSONIAN COMPOUND ACETYLSALICYLIC ACID MALTOL ESTER” (Hutecs Korea Pharmaceutical Co., Ltd., priority 2008, published 2012)",
  "key": {"[1]": {"system": "dopamine (DA), DOPAC, HVA", "assay": "Striatal DA, DOPAC and HVA after MPTP (HPLC)", "format": "in vivo, mice", "details": "AME 25 mg/kg p.o., MPTP 25 mg/kg i.p. x7 days", "protocol": "(§1) AME (25 mg/kg, p.o) administration was started 4 days (twice daily) before the first injection of MPTP and continued for 7 consecutive days (once a day). MPTP was injected (25 mg/kg, i.p) once a day 1 h after AME treatment for consecutive 7 days.\nAt 3 days after last MPTP injection, mice were killed by cervical dislocation. The brains were removed and placed on an ice-cooled plate. Striatum was dissected and immediately frozen on dry ice and stored at −70° C. until extraction. Brain regions obtained from each animal were weighed, ultrasonicated in 10% perchloric acid containing 10 ng/mg of the internal standard dihydroxybenzilamine, and centrifuged at 20,000×g for 10 min. The levels of DA and its metabolites 3,4-dihydroxyphenylacetic acid (DOPAC) and homovanillic acid (HVA) in brain tissue extracts were determined by HPLC coupled with electrochemical detection as described (Kim et al., 1999). Briefly, striatal tissues were sonicated in 0.2 M perchloric acid (20% W/V) containing the internal standard 3,4-dihydroxybenzylamine (10 mg wet tissue/ml). The homogenate was centrifuged and a 20 μl aliquot of the supernatant was injected into the HPLC equipped with a 3 μm C18 column. The mobile phase was comprised of 26 ml of acetonitrile, 21 ml of tetrahydrofuran and 960 ml of 0.15 M monochloroacetic acid (pH 3.0) containing 50 mg/l of EDTA and 200 mg/l of sodium octyl sulfate. The amount of DA, DOPAC and HVA were determined by comparison of peak height ratio of tissue sample with standards, and were expressed in nanograms per gram of wet weight of tissue."}, "[2]": {"details": "in vitro; Han et al., 1994; cited from earlier work"}, "[3]": {"system": "glutathione peroxidase (GPx)", "details": "Kim et al., 1996; cited from earlier work"}, "[4]": {"details": "Kim et al., 1997a; cited from earlier work"}, "[5]": {"details": "Kim et al., 1997a; cited from earlier work", "remark": "listed apart in the source"}, "tyrosine hydroxylase": {"system": "tyrosine hydroxylase", "assay": "Striatal and nigral TH-like immunoreactivity after MPTP (immunocytochemistry)", "format": "in vivo, mice", "details": "AME 25 mg/kg p.o., MPTP 25 mg/kg i.p. x7 days", "protocol": "as §1\nAnimals were sacrificed at 3 days after final MPTP-treatment. They were anesthetized with 60% urethane and perfused transcardially with 200 ml of 50 mM phosphate buffered saline (PBS), followed by 50 ml of paraformaldehyde in PBS. The brain were fixed at 4° C. for 24 h in the same fixative and then cryoprotected in 30% sucrose. The brains were sectioned on a horizontal sliding microstome into 35 μm transverse free-floating sections. The immunocytochemistry was performed as described previously (Kim et al., 2000a; Kim et al., 2000b). Briefly, prior to incubation with the primary antibodies, sections were preincubated with 0.3% hydrogen peroxide in PBS for 30 min (to block endogenous peroxidase activity), then in PBS containing 0.4% Triton X-100 for 20 min and 1% normal serum for 20 min. […] The quantitative analyses were performed using a computer-based image analysis system (Optimas version 6.2; Neurolucida Program) (Kim et al., 1999)."}, "[6]": {"details": "Kim et al., 1997b; cited from earlier work"}},
  "data": [
    {"smiles": "CC(=O)Oc1ccccc1C(=O)Oc1c(C)occc1=O", "note": "[AME, 3-(2-methyl-4-pyronyl)-2-acetyloxybenzoate]", "values": [
      {"measurement": "effect on MPTP-induced increase in DA turnover rate", "setting": "[1]; p<0.01 vs. MPTP alone", "result": "significant attenuated"},
      {"measurement": "effect on MPTP-induced reduction in striatal HVA", "setting": "[1]; p<0.01 vs. MPTP alone", "result": "significant attenuated"},
      {"measurement": "effect on MPTP-induced reduction in striatal dopamine (DA)", "setting": "[1]; p<0.01 vs. MPTP alone", "result": "significant attenuated"},
      {"measurement": "effect on MPTP-induced reduction in striatal DOPAC", "setting": "[1]; p<0.05 vs. MPTP alone", "result": "significant attenuated"},
      {"measurement": "antioxidative efficacy", "setting": "[2]", "result": "antioxidative efficacy in vitro"},
      {"measurement": "activity of glutathione peroxidase (GPx)", "setting": "[3]", "result": "elevating the activity of glutathione peroxidase (GPx)"},
      {"measurement": "gastrointestinal damage", "setting": "[4]", "result": "negligible gastrointestinal damage"},
      {"measurement": "antithrombotic efficacy", "setting": "[5]", "result": "antithrombotic efficacy"},
      {"measurement": "effect on MPTP-induced decrease in striatal TH-IR", "setting": "tyrosine hydroxylase; striatum", "result": "significantly attenuated these decreases in TH-IR"},
      {"measurement": "effect on MPTP-induced decrease in substantia nigra TH-IR", "setting": "tyrosine hydroxylase; substantia nigra", "result": "significantly attenuated these decreases in TH-IR"},
      {"measurement": "neuroexcitotoxicity", "setting": "[6]", "result": "attenuates neuroexcitotoxicity"}
    ]}
  ]
}
